Test results: ChEMBL document CHEMBL1201862, “PubChem BioAssay data set” (2004)
Calls of active or inactive are those of the source.

What was measured:
Paired box protein Pax-8 = Paired box protein Pax-8 (Homo sapiens, UniProt Q06710); experiment: inhibitors of PAX8-driven TPO luciferase reporter, dose response, RMG-I cells, cherry-pick (AID 687027); assay type: functional, cell-based;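 further: luciferase reporter driven by Pax8 target thyroperoxidase promoter measured by SteadyGlo luminescence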
[1] = non-specific cell cytotoxicity, dose response, cytotoxicity control for PAX8 inhibitor project, plate reader, dry powder samples (AID 743021); assay type: functional, cell-based
Vero = experiment: Vero cell toxicity, dose response, cytotoxicity control, plate reader, cherry-pick samples (AID 687020); assay type: functional, cell-based; details: Chlorocebus sabaeus
cells [2] = assay type: functional, cell-based
[3] = target: T1, Nuclear receptor subfamily 0 group B member 1 (Homo sapiens, UniProt P51843); assay type: functional, cell-based;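 further: HEK293T cells transfected with SF-1 and DAX-1 plus StAR promoter luciferase reporter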
T1 sequence (P51843 whole entry): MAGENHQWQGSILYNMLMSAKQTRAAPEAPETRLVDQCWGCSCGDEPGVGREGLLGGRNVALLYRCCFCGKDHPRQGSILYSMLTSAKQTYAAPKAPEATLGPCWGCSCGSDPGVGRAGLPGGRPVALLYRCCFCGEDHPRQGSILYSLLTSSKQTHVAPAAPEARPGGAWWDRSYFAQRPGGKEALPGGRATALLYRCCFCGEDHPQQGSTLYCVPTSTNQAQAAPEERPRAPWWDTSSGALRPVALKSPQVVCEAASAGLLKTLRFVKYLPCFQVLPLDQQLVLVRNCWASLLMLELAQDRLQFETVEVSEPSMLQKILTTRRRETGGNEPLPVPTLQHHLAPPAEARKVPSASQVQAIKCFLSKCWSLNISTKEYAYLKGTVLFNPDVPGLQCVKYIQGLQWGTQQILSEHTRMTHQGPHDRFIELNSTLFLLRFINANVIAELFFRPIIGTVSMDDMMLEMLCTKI

Cytochrome P450 2D6 = Cytochrome P450 2D6 (Homo sapiens, UniProt P10635);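 further: CYP2D6 member of a cytochrome P450 panel assay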
Cytochrome P450 3A4 = Cytochrome P450 3A4 (Homo sapiens, UniProt P08684);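 further: CYP3A4 tested as one member of a cytochrome P450 panel screen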
Cytochrome P450 2C9 = Cytochrome P450 2C9 (Homo sapiens, UniProt P11712)
[4] = miR-122 activators in hepatoma reporter cells, dose response, cell-based, Huh7 psiCHECK-miR122, Renilla luciferase, cherry-picked (AID 651956); assay type: functional;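 further: huh7 hepatoma cells stably carrying a psiCHECK-2 miR-122 sensor plasmid; renilla luciferase signal reporting endogenous miR-122 activity after 48 h compound exposure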
[5] = HEK293T cytotoxicity, dose response, cytotoxicity control for miR-122 modulator project, cell-based, inhibitor set, cherry-pick, set 2 (AID 720697); assay type: functional
[6] = A375 melanoma cell viability loss, dose response, counter-screen for MITF inhibitor project, CellTiter-Glo luminescence, dry powder, set 4 (AID 624364); assay type: functional, cell-based; details: A-375;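 further: A375 melanoma cells are MITF independent so this is a counter screen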
[7] = A375 melanoma cell cytotoxicity, dose response, counter-screen for MITF inhibitor project, CellTiter-Glo luminescence, dry powder, set 2 (AID 624489); assay type: functional, cell-based; details: A-375;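 further: actives are compounds lowering A375 viability meaning general cytotoxicity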
cells [8] = assay type: functional, cell-based; remark: listed apart in the source
cells [9] = assay type: functional, cell-based; remark: listed apart in the source
[10] = target: T2, Heat shock factor protein 1 (Mus musculus, UniProt P38532); experiment: inhibition of MG132-induced HSE-luciferase signal, confirmation, cell-based, NIH3T3, luminescence, dose retest (AID 2382); assay type: functional;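 further: NIH3T3 fibroblasts with HSF1-driven luciferase reporter stressed by proteasome inhibitor MG132; luminescence from HSF1-driven luciferase expression after 8 hours of MG132 stress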
T2 sequence (P38532 whole entry): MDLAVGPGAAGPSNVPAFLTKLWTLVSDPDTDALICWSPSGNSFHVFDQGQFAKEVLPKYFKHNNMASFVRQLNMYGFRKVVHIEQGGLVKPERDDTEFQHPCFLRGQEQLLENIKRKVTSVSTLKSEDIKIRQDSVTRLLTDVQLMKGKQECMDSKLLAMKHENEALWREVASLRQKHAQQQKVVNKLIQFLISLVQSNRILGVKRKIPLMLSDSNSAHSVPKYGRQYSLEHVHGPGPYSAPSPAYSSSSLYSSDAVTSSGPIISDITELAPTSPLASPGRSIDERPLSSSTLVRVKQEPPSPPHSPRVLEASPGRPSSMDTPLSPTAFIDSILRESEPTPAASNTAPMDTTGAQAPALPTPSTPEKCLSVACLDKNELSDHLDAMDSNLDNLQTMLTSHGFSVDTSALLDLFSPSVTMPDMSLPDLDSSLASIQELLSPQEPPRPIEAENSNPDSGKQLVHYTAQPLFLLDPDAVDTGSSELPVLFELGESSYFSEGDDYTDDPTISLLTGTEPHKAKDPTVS

Cytochrome P450 2D6, sequence (P10635 whole entry): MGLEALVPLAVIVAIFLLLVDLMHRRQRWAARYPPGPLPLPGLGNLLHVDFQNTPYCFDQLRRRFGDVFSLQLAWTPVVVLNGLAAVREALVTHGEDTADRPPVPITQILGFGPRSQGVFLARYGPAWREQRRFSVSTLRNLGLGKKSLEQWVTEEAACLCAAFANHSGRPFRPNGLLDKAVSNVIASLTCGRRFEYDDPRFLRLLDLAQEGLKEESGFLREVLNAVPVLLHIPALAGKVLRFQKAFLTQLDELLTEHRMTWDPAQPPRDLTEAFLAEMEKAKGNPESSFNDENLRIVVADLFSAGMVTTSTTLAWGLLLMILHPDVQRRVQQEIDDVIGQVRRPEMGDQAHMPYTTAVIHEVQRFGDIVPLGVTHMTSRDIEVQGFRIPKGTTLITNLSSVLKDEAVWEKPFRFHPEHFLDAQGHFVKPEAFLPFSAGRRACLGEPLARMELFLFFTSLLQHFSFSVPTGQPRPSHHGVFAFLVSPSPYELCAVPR
Cytochrome P450 2C9, sequence (P11712 whole entry): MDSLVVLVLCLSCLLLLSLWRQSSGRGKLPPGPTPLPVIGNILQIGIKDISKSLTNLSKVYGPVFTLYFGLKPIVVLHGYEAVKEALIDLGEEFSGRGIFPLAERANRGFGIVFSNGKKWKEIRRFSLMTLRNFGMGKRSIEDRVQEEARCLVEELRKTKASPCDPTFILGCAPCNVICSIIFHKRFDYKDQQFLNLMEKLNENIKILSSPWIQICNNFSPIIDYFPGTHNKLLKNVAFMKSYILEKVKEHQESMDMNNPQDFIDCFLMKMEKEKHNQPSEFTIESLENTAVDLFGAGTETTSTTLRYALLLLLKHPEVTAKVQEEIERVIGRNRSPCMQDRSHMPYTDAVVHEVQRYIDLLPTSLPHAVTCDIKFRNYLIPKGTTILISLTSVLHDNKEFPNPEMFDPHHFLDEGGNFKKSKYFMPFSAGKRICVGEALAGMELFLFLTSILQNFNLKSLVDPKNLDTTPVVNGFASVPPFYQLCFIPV
Cytochrome P450 3A4, sequence (P08684 whole entry): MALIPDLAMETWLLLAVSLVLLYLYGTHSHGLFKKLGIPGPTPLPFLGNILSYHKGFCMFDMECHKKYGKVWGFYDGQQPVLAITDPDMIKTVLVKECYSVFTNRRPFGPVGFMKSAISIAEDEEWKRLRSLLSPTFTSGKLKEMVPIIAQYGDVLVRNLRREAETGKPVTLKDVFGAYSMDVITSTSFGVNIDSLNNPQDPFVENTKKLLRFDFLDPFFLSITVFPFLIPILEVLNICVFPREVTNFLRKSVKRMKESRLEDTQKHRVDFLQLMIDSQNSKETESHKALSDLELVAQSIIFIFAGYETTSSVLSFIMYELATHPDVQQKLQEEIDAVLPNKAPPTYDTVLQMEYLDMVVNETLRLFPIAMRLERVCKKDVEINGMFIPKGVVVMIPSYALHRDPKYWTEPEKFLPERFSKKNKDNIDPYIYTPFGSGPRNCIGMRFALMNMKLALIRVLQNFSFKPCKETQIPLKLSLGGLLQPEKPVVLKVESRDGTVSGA
Paired box protein Pax-8, sequence (Q06710 whole entry): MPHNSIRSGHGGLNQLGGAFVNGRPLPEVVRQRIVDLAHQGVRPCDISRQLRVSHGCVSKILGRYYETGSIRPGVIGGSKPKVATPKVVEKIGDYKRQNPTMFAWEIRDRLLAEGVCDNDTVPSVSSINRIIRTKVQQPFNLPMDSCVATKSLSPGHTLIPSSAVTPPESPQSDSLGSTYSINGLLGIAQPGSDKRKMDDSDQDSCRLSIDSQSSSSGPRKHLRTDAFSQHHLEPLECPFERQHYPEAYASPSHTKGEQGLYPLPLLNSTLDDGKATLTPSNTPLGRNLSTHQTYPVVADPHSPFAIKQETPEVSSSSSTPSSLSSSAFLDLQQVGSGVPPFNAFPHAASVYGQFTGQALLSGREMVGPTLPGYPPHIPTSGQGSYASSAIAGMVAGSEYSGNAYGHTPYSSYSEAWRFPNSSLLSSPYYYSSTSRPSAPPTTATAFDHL

In the case of COC(=O)C1=C(C)N(Cc2ccc(C(F)(F)F)cc2)C(NCc2ccccc2)=NC1c1cccc(F)c1 (stereo not drawn), the AC50 (Paired box protein Pax-8) is reported as 26.8 µM (active) and the AC50 [1] is reported as 23.4 µM (active).

In the case of COc1ccc(C(=O)NCCNc2nc3c(C)cccc3cc2C#N)cc1OC, the AC50 (Vero) is reported as 25.7 µM (active).

For O=c1cc(-c2ccccc2)oc2cc(O)cc(O)c12 [CHRYSIN], the IC50 (cells [2]) was > 67.6 µM (inactive), the IC50 [3] was > 67.6 µM (inactive) and the AC50 (Cytochrome P450 2D6) was 12.6 µM (inconclusive). For the same molecule, the AC50 (Cytochrome P450 3A4) was 3.16 µM (inconclusive) and the AC50 (Cytochrome P450 2C9) was 5.01 µM (inconclusive).

For CCNC(=O)C[C@@H]1CC[C@@H]2[C@H](COc3ccc(NC(=O)Nc4cccc(Cl)c4)cc3C(=O)N2C)O1, the AC50 [4] was 4.02 µM (active) and the AC50 [5] was < 0.195 µM (active).

With CC(=O)NC1=C(c2ccc(Cl)cc2)C(=O)c2ccccc2C1=O the AC50 [6] was 12.4 µM (active) and the AC50 [7] was 9.22 µM (active).

With C=CCNC1=C(N2CCSCC2)C(=O)c2ccccc2C1=O the AC50 [6] was 24.3 µM (active) and the AC50 [7] was 8.56 µM (active).

With COc1ccc(OCC(=O)N2CCc3ccccc3C2)cc1 the IC50 (cells [8]) was > 29.9 µM (inactive) and the EC50 (cells [9]) was > 29.9 µM (inactive).

In the case of CCOC(=O)c1cc(S(=O)(=O)N2CCc3ccccc32)cn1C, the EC50 [10] is reported as > 195 µM (not active) and the AC50 (Vero) is reported as 17.9 µM (active).
